Test results published in US11279733B2, “Peptide antibiotics” (priority 2017, dated 2022).
In brackets after ≈: the same amount, converted by molar mass. Starred links: 1 amine or outer side, 2 acyl side, 3 side chain; linkers in the order of their positions; H or OH if unused. Positions of bridges follow the written chain, without caps; N, C: chain ends. Non-standard residues stand in square brackets, D forms with d. Residues, ends and D or L forms follow the SMILES beside them. *: point of attachment. X10 = CCCCCCC[C@@H](O)CC(=O)N[C@H](CCN)C(=O)NN(CCN[*:2])C(=O)[*:1]; Decanoyl(3R-OH) = CCCCCCC[C@@H](O)CC(=O)*; X12 = O=C(c1ccn(-c2ccccc2)c(=O)c1)*; Decanoyl = CCCCCCCCCC(=O)*; Nonanoyl = CCCCCCCCC(=O)*; dDab = NCC[C@@H](N)C(=O)O; Heptanoyl = CCCCCCC(=O)*; dDap = NC[C@@H](N)C(=O)O; Dab = NCC[C@H](N)C(=O)O

Experiments:
[1] = in vitro; details: human
How it was run: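 4000 cells/well, 24 h attach (37 °C, 5% CO2); compound 24 h; 5 μM resazurin 2 h, 37 °C; fluorescence ex/em 560/590. CC50 by curve fit.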

[2] = system: A. baumannii ATCC 19606; details: ATCC 19606
How it was run: (§1)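 Mid-log cultures grown in Mueller Hinton broth at 37° C were tested by 2-fold broth microdilution at 5×10^5 CFU/mL final. Compounds were dissolved in water and tested over a final range of 32 to 0.015 μg/mL.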

[3] = system: P. aeruginosa GN_043, PmxR; details: for MIC, P. aeruginosa FADDI-PA070, PmxR: strain name as in Table 11
How it was run: as §1

[4] = system: P. aeruginosa GN_105, PmxR; details: GN 105, PmxR
How it was run: as §1

[5] = system: A. baumannii GN_093 PmxR; details: GN 093 PmxR
How it was run: as §1

[6] = system: K. pneumoniae GN_102 PmxR; details: GN 102 PmxR
How it was run: as §1

[7] = system: K. pneumoniae ATCC 700603, MDR; details: ATCC 700603
How it was run: as §1

[8] = system: P. aeruginosa ATCC 27853; details: ATCC 27853
How it was run: as §1

[9] = system: K. pneumoniae ATCC 13883; details: ATCC 13883
How it was run: as §1

[10] = system: K. pneumoniae ATCC BAA-2146, NDM-1 pos; details: ATCC BAA-2146
How it was run: as §1

[11] = system: S. aureus ATCC 25923, MSSA; details: ATCC 25923
How it was run: as §1

[12] = system: E. coli ATCC 25922; details: ATCC 25922
How it was run: as §1

[13] = system: K. pneumoniae GN_106, PmxR; details: GN 106, PmxR
How it was run: as §1

SMILES	CC50 at 24 h [1] [µM]	MIC A. baumannii ATCC 19606 [2] [µg/mL]	MIC P. aeruginosa GN_043, PmxR [3] [µg/mL]	MIC P. aeruginosa GN_105, PmxR [4] [µg/mL]	MIC A. baumannii GN_093 PmxR [5] [µg/mL]	MIC K. pneumoniae GN_102 PmxR [6] [µg/mL]	MIC K. pneumoniae ATCC 700603, MDR [7] [µg/mL]	MIC P. aeruginosa ATCC 27853 [8] [µg/mL]	MIC K. pneumoniae ATCC 13883 [9] [µg/mL]	MIC K. pneumoniae ATCC BAA-2146, NDM-1 pos [10] [µg/mL]	MIC S. aureus ATCC 25923, MSSA [11] [µg/mL]	MIC E. coli ATCC 25922 [12] [µg/mL]	MIC K. pneumoniae GN_106, PmxR [13] [µg/mL]	MIC, P. aeruginosa FADDI-PA070, PmxR [3] [µg/mL]	MIC P. aeruginosa PA9704, PmxR [4] [µg/mL]	MIC A. baumannii Cl Ptyela 10073 4512:2, PmxR [5] [µg/mL]	MIC K. pneumoniae Cl Koprana 10065 0661:1 PmxR [6] [µg/mL]	MIC K. pneumoniae Cl 183-16357-20352, PmxR [13] [µg/mL]
CC(C)C[C@@H]1NC(=O)[C@H](CCN)NC(=O)[C@H](CCN)NC(=O)[C@H](CC(C)C)NC(=O)[C@@H](Cc2ccccc2)NC(=O)[C@H](CCN)NC(=O)[C@@H](NC(=O)[C@@H](CN)NC(=O)c2ccn(-c3ccccc3)c(=O)c2)CCNC1=O [compound 9189, 4-(1-Ph-pyridinone)-D-Dap-cyc[L-Dab-L-Dab-D-Phe-L-Leu-L-Dab-L-Dab-L-Leu]] (X12-[dDap][Dab][Dab][dF]L[Dab][Dab]L; lactam 2-C)	> 300	>32	4 (≈ 3.78 µM)	16 (≈ 15.1 µM)	>32	>32	32 (≈ 30.3 µM)	4 (≈ 3.78 µM)	>32	32 (≈ 30.3 µM)	>32	>32	>32					
CCCCCCC(=O)N[C@H](CN)C(=O)N[C@H]1CCNC(=O)[C@H](CC(C)C)NC(=O)[C@H](CCN)NC(=O)[C@H](CCN)NC(=O)[C@H](CC(C)C)NC(=O)[C@@H](Cc2ccccc2)NC(=O)[C@H](CCN)NC1=O [compound 9190, nC6CO-D-Dap-cyc[L-Dab-L-Dab-D-Phe-L-Leu-L-Dab-L-Dab-L-Leu]] (Heptanoyl-[dDap][Dab][Dab][dF]L[Dab][Dab]L; lactam 2-C)	> 300	>32	4 (≈ 4.11 µM)	8 (≈ 8.23 µM)	>32	32 (≈ 32.9 µM)	16 (≈ 16.5 µM)	2 (≈ 2.06 µM)	16 (≈ 16.5 µM)	16 (≈ 16.5 µM)	>32	8 (≈ 8.23 µM)	>32					
CCCCCCCCC(=O)N[C@H](CN)C(=O)N[C@H]1CCNC(=O)[C@H](CC(C)C)NC(=O)[C@H](CCN)NC(=O)[C@H](CCN)NC(=O)[C@H](CC(C)C)NC(=O)[C@@H](Cc2ccccc2)NC(=O)[C@H](CCN)NC1=O [compound 9191, nC8CO-D-Dap-cyc[L-Dab-L-Dab-D-Phe-L-Leu-L-Dab-L-Dab-L-Leu]] (Nonanoyl-[dDap][Dab][Dab][dF]L[Dab][Dab]L; lactam 2-C)	> 300	>32	2 (≈ 2 µM)	2 (≈ 2 µM)	>32	8 (≈ 8 µM)	8 (≈ 8 µM)	4 (≈ 4 µM)	8 (≈ 8 µM)	8 (≈ 8 µM)	32 (≈ 32 µM)	4 (≈ 4 µM)	16 (≈ 16 µM)					
CCCCCCCCCC(=O)N[C@H](CN)C(=O)N[C@H]1CCNC(=O)[C@H](CC(C)C)NC(=O)[C@H](CCN)NC(=O)[C@H](CCN)NC(=O)[C@H](CC(C)C)NC(=O)[C@@H](Cc2ccccc2)NC(=O)[C@H](CCN)NC1=O [compound 9192, nC9CO-D-Dap-cyc[L-Dab-L-Dab-D-Phe-L-Leu-L-Dab-L-Dab-L-Leu]] (Decanoyl-[dDap][Dab][Dab][dF]L[Dab][Dab]L; lactam 2-C)	224	32 (≈ 31.5 µM)	4 (≈ 3.94 µM)	2 (≈ 1.97 µM)	4 (≈ 3.94 µM)	8 (≈ 7.89 µM)	8 (≈ 7.89 µM)	4 (≈ 3.94 µM)	8 (≈ 7.89 µM)	8 (≈ 7.89 µM)	8 (≈ 7.89 µM)	2 (≈ 1.97 µM)	8 (≈ 7.89 µM)					
CCCCCCC[C@@H](O)CC(=O)N[C@H](CCN)C(=O)N[C@H]1CCNC(=O)[C@H](CC(C)C)NC(=O)[C@H](CCN)NC(=O)[C@H](CCN)NC(=O)[C@@H](Cc2ccccc2)NC(=O)[C@H](CC(C)C)NC(=O)[C@H](CCN)NC1=O [compound 9194, 3(R)-OH-nC9CO-D-Dab-cyc[L-Dab-L-Dab-L-Leu-D-Phe-L-Dab-L-Dab-L-Leu]] ({Decanoyl(3R-OH)}-[dDab][Dab][Dab]L[dF][Dab][Dab]L; lactam 2-C)	> 300	>32	>32	>32	>32	>32	>32	32 (≈ 30.6 µM)	>32	>32	32 (≈ 30.6 µM)	32 (≈ 30.6 µM)	>32					
CCCCCCC[C@@H](O)CC(=O)N[C@H](CCN)C(=O)N[C@H]1CCNC(=O)N(CC(C)C)NC(=O)[C@H](CCN)NC(=O)[C@H](CCN)NC(=O)[C@H](CC(C)C)NC(=O)[C@@H](Cc2ccccc2)NC(=O)[C@@H](CCN)NC1=O [compound 9416, 3(R)OH-nC9CO-D-Dab-cyc[L-Dab-L-Dab-D-Phe-L-Leu-L-Dab-L-Dab-(aza-Leu)]]	> 300	>32					16 (≈ 15.3 µM)	4 (≈ 3.83 µM)	16 (≈ 15.3 µM)	16 (≈ 15.3 µM)	32 (≈ 30.6 µM)	16 (≈ 15.3 µM)		>32	>32	>32	>32	>32
CCCCCCC[C@@H](O)CC(=O)N[C@H](CCN)C(=O)NN1CCNC(=O)[C@H](CC(C)C)NC(=O)[C@H](CCN)NC(=O)[C@H](CCN)NC(=O)[C@H](CC(C)C)NC(=O)[C@@H](Cc2ccccc2)NC(=O)[C@H](CCN)NC1=O [compound 9417, 3(R)OH-nC9CO-D-Dab-cyc[(aza-Dab)-L-Dab-D-Phe-L-Leu-L-Dab-L-Dab-L-Leu]] ([Dab][dF]L[Dab][Dab]L; linker N-C via X10)	> 300	>32					>32	16 (≈ 15.3 µM)	>32	>32	8 (≈ 7.65 µM)	>32		>32	>32	>32	>32	>32
